Measured values: ChEMBL document CHEMBL2331239, “Inhibiting NF-κB-inducing kinase (NIK): discovery, structure-based design, synthesis, structure-activity relationship, and co-crystal structures” (Bioorg Med Chem Lett, 2013)

molecular target: T1, Mitogen-activated protein kinase kinase kinase 14 (Homo sapiens, UniProt Q99558); assay: Inhibition of NIK in human HT-29 cells assessed as LTalpha/beta2-induced p100 processing to NFkappaB2 preincubated for 30 mins before LTalpha/beta2 stimulation measured after 5 hrs; format: cell-based
T1 sequence (Q99558 whole entry): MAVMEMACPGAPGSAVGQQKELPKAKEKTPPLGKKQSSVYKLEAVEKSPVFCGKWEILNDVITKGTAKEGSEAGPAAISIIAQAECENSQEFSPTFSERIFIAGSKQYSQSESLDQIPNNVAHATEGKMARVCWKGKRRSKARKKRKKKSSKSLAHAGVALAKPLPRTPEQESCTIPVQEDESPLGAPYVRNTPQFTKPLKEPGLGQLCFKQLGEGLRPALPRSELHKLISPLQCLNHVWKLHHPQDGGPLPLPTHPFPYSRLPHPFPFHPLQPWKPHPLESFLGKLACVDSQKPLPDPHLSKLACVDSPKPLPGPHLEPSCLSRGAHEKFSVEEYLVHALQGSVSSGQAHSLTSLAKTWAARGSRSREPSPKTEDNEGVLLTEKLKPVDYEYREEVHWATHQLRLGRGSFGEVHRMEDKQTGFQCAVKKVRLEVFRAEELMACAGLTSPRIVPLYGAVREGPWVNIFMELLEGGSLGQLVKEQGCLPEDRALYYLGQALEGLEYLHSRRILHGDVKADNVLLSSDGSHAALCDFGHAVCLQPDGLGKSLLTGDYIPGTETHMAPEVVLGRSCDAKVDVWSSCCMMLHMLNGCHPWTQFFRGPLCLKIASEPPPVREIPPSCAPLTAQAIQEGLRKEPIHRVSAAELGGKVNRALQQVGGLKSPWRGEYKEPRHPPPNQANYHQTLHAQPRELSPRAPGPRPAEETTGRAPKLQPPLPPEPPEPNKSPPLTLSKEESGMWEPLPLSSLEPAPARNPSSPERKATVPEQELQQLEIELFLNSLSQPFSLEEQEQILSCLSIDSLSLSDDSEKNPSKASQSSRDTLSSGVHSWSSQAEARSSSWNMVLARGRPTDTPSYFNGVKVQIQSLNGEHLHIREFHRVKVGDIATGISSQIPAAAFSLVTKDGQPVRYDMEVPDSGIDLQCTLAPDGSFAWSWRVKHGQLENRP

IC50 [nM]	SMILES
4600	Nc1ncc2c(n1)-c1c([nH]c3ccc(Br)cc13)CCC2
16000	Cc1nc2ccc(Cl)cn2c1-c1ccnc(N)n1

SMILES	IC50 [nM]
COCCOc1cnc(N)nc1-c1c[nH]c2ccc(C#CC(C)(C)O)cc12	20

molecular target: T1, Mitogen-activated protein kinase kinase kinase 14; assay: Inhibition of NIK (unknown origin) autophosphorylation after 1 hr by chemiluminescent assay

SMILES	IC50 [nM]
Cc1nc2ccccn2c1-c1ccnc(N)n1	> 80000
Cc1ccn2c(-c3ccnc(N)n3)c(C)nc2c1	> 80000
Cc1nc2c(C)cccn2c1-c1ccnc(N)n1	> 80000
Cc1cnc(N)nc1-c1c(C)[nH]c2ccc(Cl)cc12	30000
Nc1ncc2c(n1)-c1c[nH]c3ccc(Cl)c(c13)CC2	2600
Nc1ncc2c(n1)-c1c([nH]c3ccc(Cl)cc13)CC2	1200
Nc1ncc2c(n1)-c1c([nH]c3ccc(Cl)cc13)CCCC2	21000
Nc1ncc2c(n1)-c1c([nH]c3ccc(C#Cc4cccnc4)cc13)CCC2	30000
Cn1cncc1C#Cc1ccc2[nH]c3c(c2c1)-c1nc(N)ncc1CCC3	30000
CC(O)c1ccc(-c2ccc3[nH]c4c(c3c2)-c2nc(N)ncc2CCC4)cc1 (stereo not drawn)	24000
CC(O)c1ccc(-c2ccc3[nH]c4c(c3c2)-c2nc(N)ncc2CCC4)s1 (stereo not drawn)	15000
COCCOc1cnc(N)nc1-c1c[nH]c2ccc(C#CC(C)(C)O)cc12	40
Cc1nc2ccc(Cl)cn2c1-c1ccnc(N)n1	600
Cc1nc2ccc(Cl)cc2n1-c1ccnc(N)n1	4000
Nc1nccc(-n2cnc3ccc(Cl)cc32)n1	310
Nc1nccc(N2CCc3ccc(Br)cc32)n1	550
Nc1nccc(-c2c[nH]c3ccc(F)cc23)n1	1800
COc1ccc2[nH]cc(-c3ccnc(N)n3)c2c1	24000
Cc1ccc2nc(C)c(-c3ccnc(N)n3)n2c1	42000
Nc1nccc(-c2c[nH]c3ccccc23)n1	41000

Further molecules by falling IC50, results first:

IC50 [nM]	SMILES
300	Cc1[nH]c2ccc(Cl)cc2c1-c1ccnc(N)n1
190	Nc1nccc(-c2cnc3ccc(Br)cn23)n1
150	Nc1nccc(-c2c[nH]c3ccc(Cl)cc23)n1
110	Cc1cnc(N)nc1-c1c[nH]c2ccc(Cl)cc12
100	Nc1ncc2c(n1)-c1c([nH]c3ccc(Br)cc13)CCC2
89	Nc1nccc(-n2ccc3ccc(Br)cc32)n1
76	Nc1nccc(-n2ccc3ccc(Cl)cc32)n1
70	Nc1ncc2c(n1)-c1c([nH]c3ccc(Cl)cc13)CCC2
63	N#Cc1ccc2ccn(-c3ccnc(N)n3)c2c1
63	N#Cc1ccc2[nH]cc(-c3ccnc(N)n3)c2c1
